One compound from US20160303000A1, “COMPOSITION AND METHOD FOR REDUCING BACTERIAL BIOFILM FORMATION IN CONNECTION WITH A DENTAL PROCEDURE” (Loma Linda University, priority 2011, published 2016) can be followed below.

The test system of this assay is mixed culture consortium of three root canal isolates, E. faecalis, L. salivarius and S. gordonii. Put plainly: biofilm formation in mini-flow chamber system, CSLM with LIVE/DEAD staining. The class given is cell-based. As for the experimental part:
First, a microbial consortium was created using bacterial strains, E. faecalis, L. salivarius and S. gordonii which were isolated from endodontic therapy associated with persistent infections. The strains were stored at −70° C. using skim milk powder (Oxoid, Cambridge, United Kingdom), diluted in double distilled water and were recovered on blood agar in an atmosphere of 5% CO2 in hydrogen at 37° C. for 24 hours. Then, four to five colonies of each strain were transferred into liquid growth medium (Todd-Hewitt broth) and incubated in an atmosphere of 5% CO2 in hydrogen at 37° C. The optical densities (OD600) of the liquid cultures were monitored until exponential growth was reached, that is, until OD600 values of 0.6±0.1. The cells were harvested by centrifugation (3000 g, five minutes at 4° C.), washed in 10 mM PBS and re-suspended in Todd-Hewitt broth to an approximate cell concentration of 1×108 ml^−1. […]
Then, the mini-flow chamber biofilms were inspected. […] CSLM images were analyzed in 2 and 3-D by using the software bioimage_L. […]
Each experiment was repeated three times and the statistical analysis was performed by two-way analysis of variance (ANOVA). Two-way ANOVA detected any significant variation among biofilms formed on surfaces pre-conditioned with the composition according to the present invention, NaOCl and the uncoated controls. […]

In the case of `[Na+].[O-]Cl` [NaOCl], the “viability of biofilm cells (LIVE/DEAD staining)” value (all tests, proportions of green-viable cells) is recorded as “not compromised”. In addition, the “biovolume of biofilms relative to composition-preconditioned surfaces and uncoated controls” value (preconditioned surfaces) is “intermediate”.
